How the values were obtained:
[1] = target: T1, BuchE (Rattus norvegicus, UniProt Q9JKC1); assay: Cholinesterase inhibitory activity in vivo: BuchE activity in rat serum after gavage; set-up: species or system SD rats
T1 construct: The effect of Huperzine B on BuchE activity in the serum of rats; from tissue; host or cells: SD rat serum (ex vivo after gavage)
Protocol: Experimental animals: SD rats, clean grade, male, body weight 180-200 g, provided by Shanghai SLAC Laboratory Animal Co., Ltd, free to drink and ingest during the experimental period, indoor temperature 22-24° C., humidity 45-70%.
Main reagents: S-Butyrylthiocholine iodide, S-Acetylthiocholine iodide, Kaumas Brilliant Blue, sodium hydroxide, ethyl carbamate (urethane), phosphoric acid, sodium chloride, sodium bicarbonate, potassium dihydrogen phosphate, ethanol, sodium dodecyl sulfate, 5,5′-Dithiobis-(2-nitrobenzoic acid) (DTNB), hydrochloric acid; the above chemical reagents were purchased from Sinopharm Chemical Reagent Co., Ltd. Physiological saline, product of Shanghai Bangjing Industry Co., Ltd; bovine serum albumin, purchased from Meilun Biologicals.
The equation for calculating the activity and the activity rate of “butyrylcholinesterase” was the same as that for “acetylcholinesterase”.
Statistical analysis: SPSS 18 statistical software and EXCEL were applied. Measurement data were expressed as “mean±standard deviation (x±s)”, t-test was used for comparison between two groups, and LSD method was used for pairwise comparison between groups when there was homogeneity of variance, and Dunnett's method was used for analysis when there was heterogeneity of variance. P<0.05 indicates significant differences.

[2] = Hygroscopicity test (Chinese Pharmacopoeia 2020); format: physicochemical
Protocol: The test was carried out with reference to the requirements of hygroscopicity test in the General Technical Requirements of Part IV of the Chinese Pharmacopoeia 2020 Edition.
Methods: A dry stoppered glass weighing flask (outer diameter 50 mm, height 15 mm) was placed in a suitable 25° C.±1° C. constant temperature desiccator (with ammonium chloride or ammonium sulfate saturated solution placed in the lower part) or an artificial climate chamber (with a set temperature of 25° C.±1° C. and a relative humidity of 80%±2%) prior to the test, and the weight (m1) was weighed precisely.
The thickness of the test sample was generally 1 mm, and the weight (m2) was weighed precisely. The weighing flask was left open, and was placed in the above constant temperature and humidity conditions together with the cap of the flask for 24 hours.
The weighing flask was closed with the cap and weighed precisely (m3).

[3] = Stability of crystals: high humidity test (RH 75±5%); format: physicochemical; conditions: around 25° C.
Source text: (§1) The conditions and methods for detecting the relevant substances involved in the present invention are high performance liquid chromatography determination.
The samples were taken and tested on day 5 and day 10, respectively, and the results were compared with that of day 0.

[4] = Stability of crystals: strong light irradiation test (4,500±500 Lx); format: physicochemical
Source text: as §1
The distance was adjusted so that the light intensity was 4,500±500 Lx. The samples were taken and tested on day 5 and day 10, respectively, and the results were compared with that of day 0.

[5] = Stability of crystals: high temperature test (60° C.); format: physicochemical
Source text: as §1
The samples were taken and tested on day 5 and day 10, respectively, and the results were compared with those on day 0.The results are shown in Table 5.

[6] = 25° C.±1° C., relative humidity 80%±2%, 24 hours

T1 sequence (Q9JKC1 24-597): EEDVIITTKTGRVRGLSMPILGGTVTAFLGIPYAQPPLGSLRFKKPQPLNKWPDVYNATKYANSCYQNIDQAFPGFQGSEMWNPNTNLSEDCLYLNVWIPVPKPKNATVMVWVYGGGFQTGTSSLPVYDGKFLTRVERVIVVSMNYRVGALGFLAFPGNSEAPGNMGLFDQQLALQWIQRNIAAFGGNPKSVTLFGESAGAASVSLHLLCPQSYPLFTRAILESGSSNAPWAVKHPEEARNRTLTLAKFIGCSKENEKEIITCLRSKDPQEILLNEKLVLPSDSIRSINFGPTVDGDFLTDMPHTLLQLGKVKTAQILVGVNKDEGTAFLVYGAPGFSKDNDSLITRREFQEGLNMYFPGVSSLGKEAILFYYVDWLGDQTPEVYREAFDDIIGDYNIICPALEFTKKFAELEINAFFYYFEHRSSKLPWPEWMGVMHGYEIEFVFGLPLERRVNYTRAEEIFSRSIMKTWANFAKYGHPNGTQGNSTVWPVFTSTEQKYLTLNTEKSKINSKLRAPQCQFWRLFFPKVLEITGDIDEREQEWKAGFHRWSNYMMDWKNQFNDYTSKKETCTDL

SMILES | Percentage of weight gain (%) [2, 6] [%] | Appearance ([3]; day 0) | Content ([3]; day 0) [%] | Moisture ([3]; day 0) [%] | Appearance ([3]; day 5) | Content ([3]; day 5) [%] | Moisture ([3]; day 5) [%] | Appearance ([3]; day 10) | Content ([3]; day 10) [%] | Moisture ([3]; day 10) [%] | Appearance ([4]; day 0) | Content ([4]; day 0) [%] | relevant substances ([4]; day 0) | Appearance ([4]; day 5) | Content ([4]; day 5) [%] | relevant substances ([4]; day 5) | Appearance ([4]; day 10) | Content ([4]; day 10) [%] | relevant substances ([4]; day 10) | Appearance ([5]; day 0) | other results
CC1=CC2Cc3[nH]c(=O)ccc3C3(C1)NCCCC23 [Crystal form A, (4aR, 5R, 10bR)-1,2,3,4,4a,4,6,10b octahydro-12-methyl-5,10b-propeno-1,7-phenanthrolin-8 (7H)-one] | 0.05 | Off-white powder | 100.1 | 6.93 | Off-white powder | 100.2 | 6.95 | Off-white powder | 99.9 | 6.98 | Off-white powder | 100.1 | 0.12 | Off-white powder | 99.8 | 0.22 | Off-white powder | 98.9 | 0.28 | Off-white | effect on BuchE activity in the rat serum (in words) ([1]; rat serum): certain inhibitory effect; Conclusion: (hygroscopicity) [2, 6]: No or almost no; hygroscopicity (in words) ([2]; compared with Huperzine B crystal form B): low hygroscopicity; Content ([5]; day 0): 100.1%; relevant substances ([5]; day 0): 0.12; Appearance ([5]; day 5): Off-white; Content ([5]; day 5): 100.2%; relevant substances ([5]; day 5): 0.19; Appearance ([5]; day 10): Off-white; Content ([5]; day 10): 99.7%; relevant substances ([5]; day 10): 0.21
CC1=CC2Cc3[nH]c(=O)ccc3C3(C1)NCCCC23 [Crystal form B, (4aR, 5R, 10bR)-1,2,3,4,4a,4,6,10b octahydro-12-methyl-5,10b-propeno-1,7-phenanthrolin-8 (7H)-one] | 2.88 | Off-white powder | 99.8 | 6.13 | Off-white powder | 99.7 | 7.13 | Off-white powder | 99.6 | 7.53 | Off-white powder | 99.8 | 0.18 | Off-white powder | 99.5 | 0.32 | Off-white powder | 98.6 | 0.49 | Off-white | Content ([5]; day 0): 99.8%; relevant substances ([5]; day 0): 0.18; Appearance ([5]; day 5): Off-white; Content ([5]; day 5): 99.5%; relevant substances ([5]; day 5): 0.29; Appearance ([5]; day 10): Off-white; Content ([5]; day 10): 98.9%; relevant substances ([5]; day 10): 0.41
CC1=CC2Cc3[nH]c(=O)ccc3C3(C1)NCCCC23 [hupB, (4aR, 5R, 10bR)-1,2,3,4,4a,4,6,10b octahydro-12-methyl-5,10b-propeno-1,7-phenanthrolin-8 (7H)-one] | – | – | – | – | – | – | – | – | – | – | – | – | – | – | – | – | – | – | – | – | inhibition at 0.12 mg/kg ([1]; po, rat serum BuchE, 0.12 mg/kg by gavage, x±s, read-out: Inhibition rate (%)): 1 ± 46.5%; inhibition at 0.24 mg/kg ([1]; po, rat serum BuchE, 0.24 mg/kg by gavage, x±s, read-out: Inhibition rate (%)): 19.9 ± 28.1%; inhibition at 0.48 mg/kg ([1]; po, rat serum BuchE, 0.48 mg/kg by gavage, x±s, read-out: Inhibition rate (%)): 29.2 ± 13.7%; Serum BuchE (nmol/min/mg protein) ([1]; rat serum, 0.12 mg/kg by gavage, x±s): 6.83 ± 3.21 nmol/min/mg protein; Serum BuchE (nmol/min/mg protein) ([1]; rat serum, 0.24 mg/kg by gavage, x±s): 5.53 ± 1.94 nmol/min/mg protein; Serum BuchE (nmol/min/mg protein) ([1]; rat serum, 0.48 mg/kg by gavage, x±s): 4.88 ± 0.94 nmol/min/mg protein
